{"source": "patent US20030232340A1", "about": "(priority 2002, published 2003)", "molecular_target": "T1, Concanavalin A (Canavalia ensiformis, UniProt P02866)", "T1 construct": "purchased Sigma C-5275", "experiment": "Homogeneous cubic phase dispersion assay: displacement of biotinylated mannotriose-avidin/HRP, Dextran Blue detection", "format": "binding", "conditions": "500 microliters of saturated solution added to 3.0 ml", "method": "Experimental Results—A cubic phase was first prepared by mixing 0.752 grams of Pluronic P123 (an insoluble surfactant), 0.705 grams of linalool, and 0.703 grams of water. An amount of 1.005 grams of this cubic phase was put in a glass flask together with 0.054 grams of the rhamnolipid surfactant JBR-99 (Jeneil Biosurfactant, Inc.) and 35 ml of pH 4.5 acetate buffer containing 4 mM MnCl2 and 4 mM CaCl2. The flask was then sonicated to disperse the cubic phase. Following this, the dispersion was microfluidized in a model 110S Microfluidizer (Microfluidics, Inc.) to a particle size that was fine enough where the absorbance measured on an Ultrospec 3000 UV-Vis spectrometer, at a wavelength of 620 nm, was about 0.2 absorbance units.\nThe following reagents were then added to 2 ml of the cubic phase dispersion: […]\nAfter the addition of the Dextran Blue-based Detection System, absorbance readings at 620 nm were monitored continuously. After the readings stabilized at 0.40 absorbance units, 500 microliters of Displacement Solution were added. […]\nUpon addition of this alpha methylmannoside—the analyte—the absorbance dropped from 0.40 to 0.26 absorbance units. […] The majority of the decrease in absorbance was due to the enzymatic action of displaced HRP on the Dextran Blue.", "data": [{"smiles": "COC1O[C@H](CO)[C@@H](O)[C@H](O)[C@@H]1O", "note": "(stereo partly drawn) [alpha methylmannoside]", "values": [{"measurement": "decrease in absorbance at 620 nm", "setting": "14% expected from dilution alone", "result": 35, "unit": "%"}, {"measurement": "absorbance at 620 nm after addition of analyte", "setting": "reading before addition 0.40", "result": 0.26, "unit": "absorbance units"}]}]}
